Among the data in patent US10266548B2, “Substituted benzylindazoles for use as Bub1 kinase inhibitors in the treatment of hyperproliferative diseases” (Bayer Intellectual Property GmbH, priority 2011, dated 2019) are IC50 values, retold here.

Assay [1] concerns the target catalytic domain of human Bub1 (amino acids 704-1085) (Homo sapiens (Human), UniProt O43683). Briefly: Bub1 kinase assay (TR-FRET). In kind it is biochemical. The settings on record: 10 μM ATP, 1 μM peptide substrate; read-out: Biological Assay 1: Bub1 kinase assay median IC50. The essentials:
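Phosphoserine product detected by TR-FRET (Eu-labeled anti-mouse IgG/anti-phosphoserine antibody to streptavidin-XL665) after 1 h at 22 °C. IC50 from 4-parameter logistic fit.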
In general terms: Time-resolved FRET reads energy transfer from a long-lived donor to a nearby acceptor.

A further assay deals with HeLa cells. Description: Proliferation assay (HeLa cell line). The settings on record: read-out: Biological Assay 2: Proliferation assay (HeLa cell line) median IC50. In kind it is cell-based.
The mark [2] stands for this setting: Homo sapiens, 96 h, 4 days, crystal violet.

Where a name gives a salt, the structure may show the parent alone. Read-outs that look alike come from different tables or passages of the source.

With `CCOc1cc(F)c(Cn2nc(-c3ncc(OCC(=O)O)c(Nc4ccncc4)n3)c3ccccc32)c(F)c1` [Example 19-2], the IC50 in assay [1] is 6.3 nM; in the assay with HeLa cells (4 days, crystal violet), no less than 10000 nM.

On to `COc1cnc(-c2nn(Cc3c(Cl)ccc(C(N)=O)c3Cl)c3ccccc23)nc1Nc1ccncc1` [Example 20-2, 2,4-dichloro-3-({3-[5-methoxy-4-(pyridin-4-yla-mino)pyrimidin-2-yl]-1H-indazol-1-yl}methyl) benzamide], for which the IC50 amounted to 40 nM in assay [1] and 3300 nM in the assay on HeLa cells (setting [2]).

In the case of `COc1cnc(-c2nn(Cc3c(Cl)ccc(C(=O)N(C)C)c3Cl)c3ccccc23)nc1Nc1ccncc1` [Example 20-3, 2,4-dichloro-3-({3-[5-methoxy-4-(pyridin-4-yla-mino)pyrimidin-2-yl]-1H-indazol-1-yl}methyl)-N,N-dimethyl-benzamide], the IC50 in assay [1] turned out to be 1200 nM; in the assay with HeLa cells (Homo sapiens, 96 h), 4100 nM.

With `COc1cnc(-c2nn(Cc3c(Cl)ccc(C(=O)NCCO)c3Cl)c3ccccc23)nc1Nc1ccncc1` [Example 20-4, 2,4-dichloro-N-(2-hydroxyethyl)-3-({3-[5-methoxy-4-(pyridin-4-yla-mino)pyrimidin-2-yl]-1H-indazol-1-yl}methyl) benzamide], the IC50 is 750 nM in assay [1] and no less than 10000 nM with HeLa cells (setting [2]).

As for `COc1cnc(-c2nn(Cc3c(Cl)ccc(C(=O)N4CCOCC4)c3Cl)c3ccccc23)nc1Nc1ccncc1` [Example 20-5, [2,4-dichloro-3-({3-[5-methoxy-4-(pyridin-4-yla-mino)pyrimidin-2-yl]-1H-indazol-1-yl}methyl)phenyl] (morpholin-4-yl)methanone], the IC50 in assay [1] is 8800 nM; with HeLa cells (setting [2]) it was 5900 nM.

On to `C#Cc1ccc(Cn2nc(-c3ncc(OC)c(Nc4ccncc4)n3)c3ccccc32)c(F)c1` [Example 21-1, 2-[1-(4-ethynyl-2-fluorobenzyl)-1H-indazol-3-yl]-5-methoxy-N-(pyridin-4-yl)pyrimidin-4-amine], for which the IC50 in assay [1] came to 28 nM; with HeLa cells (setting [2]), 3800 nM.

Take `COc1cnc(-c2nn(Cc3ccccc3F)c3ccccc23)nc1N(C)c1ccncc1` [Example 23-1, 2-[1-(2-fluorobenzyl)-1H-indazol-3-yl]-5-methoxy-N-methyl-N-(pyridin-4-yl)pyrimidin-4-amine]: the values for the IC50 (in assay [1]; in the assay on HeLa cells (setting [2])) were 1400 nM and no less than 10000 nM, respectively.

As to `COc1cnc(-c2nn(Cc3ccccc3F)c3ccccc23)nc1Nc1ccncc1C#N` [Example 24-1, 4-({2-[1-(2-fluorobenzyl)-1H-indazol-3-yl]-5-methoxypyrimidin-4-yl}amino)pyridine-3-carbonitrile], the results for the IC50 (in assay [1]; with HeLa cells (setting [2])) were 62 nM and no less than 10000 nM, respectively.

Take `COc1cnc(-c2nn(Cc3ccccc3F)c3ccccc23)nc1Nc1ccncc1` [Example 24-3, 2-[1-(2-fluorobenzyl)-1H-indazol-3-yl]-5-methoxy-N-(pyridin-4-yl)pyrimidin-4-amine]: the IC50 in assay [1] is 13 nM; in the assay with HeLa cells (Homo sapiens, 96 h), 9300 nM.

On to `COc1ccc(Cn2nc(-c3ncc(OC)c(Nc4cc[nH]c(=O)c4)n3)c3ccccc32)cc1` [Example 24-7, 4-({5-methoxy-2-[1-(4-methoxybenzyl)-1H-indazol-3-yl]pyrimidin-4-yl}amino)pyridin-2(1H)-one], for which the IC50 in assay [1] is 1200 nM; in the assay with HeLa cells (Homo sapiens, 96 h), 10000 nM.

With `CCOc1cc(F)c(Cn2nc(-c3ncc(OC)c(Nc4cc[nH]c(=O)c4)n3)c3ccccc32)c(F)c1` [Example 24-8, 4-({2-[1-(4-ethoxy-2,6-difluorobenzyl)-1H-indazol-3-yl]-5-methoxypyrimidin-4-yl}amino)pyridin-2(1H)-one], the IC50 came out at 26 nM in assay [1] and 10000 nM in the assay on HeLa cells (Homo sapiens, 96 h).

As for `COc1cnc(-c2nn(Cc3ccccc3F)c3ccccc23)nc1Nc1ccncc1C(N)=O` [Example 25-1, 4-({2-[1-(2-fluorobenzyl)-1H-indazol-3-yl]-5-methoxypyrimidin-4-yl}amino)pyridine-3-carboxamide], the IC50 in assay [1] is 13 nM; in the assay on HeLa cells (setting [2]) it was no less than 10000 nM.

Consider `CCCc1ccc(Cn2nc(-c3ncc(OC)c(Nc4ccncc4C(N)=O)n3)c3ccccc32)cc1` [Example 25-2], for which the IC50 is 5.4 nM in assay [1] and no less than 10000 nM in the assay with HeLa cells (4 days, crystal violet).

Take `CCOc1cc(F)c(Cn2nc(-c3ncc(OC)c(Nc4ccncc4C(N)=O)n3)c3ccccc32)c(F)c1` [Example 25-3, 4-({2-[1-(4-ethoxy-2,6-difluorobenzyl)-1H-indazol-3-yl]-5-methoxypyrimidin-4-yl}amino)pyridine-3-carboxamide]: the values for the IC50 (in assay [1]; in the assay on HeLa cells (setting [2])) were 8.8 nM and 4400 nM, respectively.

For the molecule `COc1cnc(-c2nn(Cc3c(F)cc(O)cc3F)c3ccccc23)nc1Nc1ccncc1C(N)=O` [Example 25-4], the IC50 in assay [1] was 5.03 nM; in the assay with HeLa cells (4 days, crystal violet), 10000 nM.

For the molecule `N#Cc1cnccc1Nc1nc(-c2nn(Cc3ccccc3F)c3ccccc23)ncc1O` [Example 26-1, 4-({2-[1-(2-fluorobenzyl)-1H-indazol-3-yl]-5-hydroxypyrimidin-4-yl}amino)pyridine-3-carbonitrile], the IC50 in assay [1] came to 17 nM; with HeLa cells (setting [2]), 9200 nM.

On to `COc1ccc(Cn2nc(-c3ncc(OC)c(Nc4ccncc4C(F)(F)F)n3)c3ccccc32)cc1` [Example 27-1, 5-methoxy-2-[1-(4-methoxybenzyl)-1H-indazol-3-yl]-N-[3-(trifluoromethyl)pyridin-4-yl]pyrimidin-4-amine], for which the IC50 in assay [1] stood at 55 nM; in the assay with HeLa cells (Homo sapiens, 96 h) it was 3900 nM.

In the case of `CNC(=O)c1ccc(Cn2nc(-c3ncc(OC)c(Nc4ccncc4)n3)c3ccccc32)c(Cl)c1` [Example 29-1, formic acid-3-chloro-4-({3-[5-methoxy-4-(pyridin-4-ylamino)pyrimidin-2-yl]-1H-indazol-1-yl}methyl)-N-methylbenzamide (1:1)], the IC50 in assay [1] was 11 nM; with HeLa cells (setting [2]), no less than 10000 nM.

Consider `CNC(=O)c1ccc(Cn2nc(-c3ncc(OC)c(Nc4ccncc4)n3)c3ccccc32)c(Cl)c1` [Example 29-2, 3-chloro-4-({3-[5-methoxy-4-(pyridin-4-ylamino)pyrimidin-2-yl]-1H-indazol-1-yl}methyl)-N-methylbenzamide], for which the IC50 was 8.9 nM in assay [1] and no less than 10000 nM in the assay with HeLa cells (4 days, crystal violet).

As for `NC(=O)c1cnccc1Nc1nc(-c2nn(Cc3ccccc3F)c3ccccc23)ncc1O` [Example 30-1, 4-({2-[1-(2-fluorobenzyl)-1H-indazol-3-yl]-5-hydroxypyrimidin-4-yl}amino)pyridine-3-carboxamide], the IC50 in assay [1] was 17 nM; in the assay on HeLa cells (setting [2]), no less than 10000 nM.

`O=C(O)c1cnccc1Nc1nc(-c2nn(Cc3ccccc3F)c3ccccc23)ncc1O` [Example 30-2, 4-({2-[1-(2-fluorobenzyl)-1H-indazol-3-yl]-5-hydroxypyrimidin-4-yl}amino)pyridine-3-carboxylic acid]: the IC50 in assay [1] is 20 nM; in the assay on HeLa cells (setting [2]), no less than 10000 nM.

Regarding `CCOC(=O)c1cnccc1Nc1nc(-c2nn(Cc3ccccc3F)c3ccccc23)ncc1O` [Example 30-3, ethyl 4-({2-[1-(2-fluorobenzyl)-1H-indazol-3-yl]-5-hydroxypyrimidin-4-yl}amino)pyridine-3-carboxylate], the IC50 in assay [1] is 8.4 nM; in the assay on HeLa cells (setting [2]), no less than 10000 nM.

On to `NC(=O)c1cnc(-c2nn(Cc3ccccc3F)c3ccccc23)nc1Nc1ccncc1` [Example 32-1, 2-[1-(2-fluorobenzyl)-1H-indazol-3-yl]-4-(pyridin-4-ylamino)pyrimidine-5-carboxamide], for which the IC50 in assay [1] was 120 nM; in the assay on HeLa cells (Homo sapiens, 96 h), no less than 10000 nM.

As to `O=C(O)c1cnccc1Nc1nc(-c2nn(Cc3ccccc3F)c3ccccc23)ncc1OCCO` [Example 33-1, 4-({2-[1-(2-fluorobenzyl)-1H-indazol-3-yl]-5-(2-hydroxyethoxy)pyrimidin-4-yl}amino)pyridine-3-carboxylic acid hydrochloride (1:1)], the IC50 was 11 nM in assay [1] and no less than 10000 nM in the assay on HeLa cells (Homo sapiens, 96 h).

As to `COc1ccc(Cn2nc(-c3ncc(OC)c(Nc4ccnc(F)c4)n3)c3ccccc32)cc1` [Example 34-1, N-(2-fluoropyridin-4-yl)-5-methoxy-2-[1-(4-methoxybenzyl)-1H-indazol-3-yl]pyrimidin-4-amine], the IC50 is 230 nM in assay [1] and no less than 10000 nM in the assay with HeLa cells (Homo sapiens, 96 h).

On to `COc1ccc(Cn2nc(-c3ncc(OC)c(Nc4cc(F)nc(F)c4)n3)c3ccccc32)cc1` [Example 34-2, N-(2,6-difluoropyridin-4-yl)-5-methoxy-2-[1-(4-methoxybenzyl)-1H-indazol-3-yl]pyrimidin-4-amine], for which the IC50 in assay [1] is 6200 nM; with HeLa cells (Homo sapiens, 96 h), no less than 10000 nM.

On to `COc1ccc(Cn2nc(-c3ncc(OC)c(Nc4ccncc4F)n3)c3ccccc32)cc1` [Example 34-3, N-(3-fluoropyridin-4-yl)-5-methoxy-2-[1-(4-methoxybenzyl)-1H-indazol-3-yl]pyrimidin-4-amine], for which the IC50 is 28 nM in assay [1] and 8700 nM in the assay on HeLa cells (Homo sapiens, 96 h).

On to `CCOc1cc(F)c(Cn2nc(-c3ncc(OCCS(C)(=O)=O)c(Nc4ccncc4)n3)c3ccccc32)c(F)c1` [Example 37-1, 2-[1-(4-ethoxy-2,6-difluorobenzyl)-1H-indazol-3-yl]-5-[2-(methylsulfonyl)ethoxy]-N-(pyridin-4-yl)pyrimidin-4-amine], for which the IC50 came out at 5.7 nM in assay [1] and 4200 nM in the assay with HeLa cells (setting [2]).

In the case of `CCOc1cc(F)c(Cn2nc(-c3ncc(OC)c(Nc4c(F)cncc4F)n3)c3ccccc32)c(F)c1` [Example 39-2], the IC50 is 670 nM in assay [1] and no less than 10000 nM in the assay on HeLa cells (4 days, crystal violet).

As for `CCOc1cc(F)c(Cn2nc(-c3ncc(OC)c(Nc4ccncc4)n3)c3c(C)cccc32)c(F)c1` [Example 42-1, 2-[1-(4-ethoxy-2,6-difluorobenzyl)-4-methyl-1H-indazol-3-yl]-5-methoxy-N-(pyridin-4-yl)pyrimidin-4-amine], the IC50 in assay [1] is 6.7 nM; with HeLa cells (setting [2]), 3600 nM.
